The values that follow come from patent publication US6376510B1, “Neuromuscular relaxants” (Newlaxant LLC, priority 1997, dated 2002).

The subject of data set [1] is anesthetized rats (evoked responses of anterior tibial muscle). Put plainly: Muscle relaxant (neuromuscular blocking) properties, anesthetized rat (Example 9, Table 9). The conditions noted are these: rat; for ED50: intravenous dose causing 50% neuromuscular block, spread in brackets; for RI (recovery index): spontaneous recovery, 25-75% neuromuscular response; for Onset: time to 80-85% neuromuscular block; for % VB at ED80 nmb (vagal block) / BP (change in arterial blood pressure) / HR (change in heart rate): in vivo. From the text: The data on muscle relaxant action were obtained on anesthetized rats, and when indicated, also on juvenile pigs
Adult, male albino rats were anesthetized with pentobarbital injected intraperitoneally. Juvenile, Duroc pigs 9-12 kg body weight were anesthetized with Chloralose Nembutal sodium mixture intraperitoneally after deep sedation with inhaled halothane. The trachea was cannulated for artificial respiration via a small animal respirator. The carotid artery was cannulated for recording blood pressure via a transducer and heart rate by a cardiotachograph on a polygraph. One external jugular vein was cannulated for i.v. drug administration. Neuromuscular function was monitored by electromyography, recording evoked responses from the anterior tibial muscle as a result of supramaximal nerve stimuli consisting of single or “train-of-four” rectangular pulses of 0.1-0.2 msec duration every 10-12 seconds, delivered to the sciatic or common peroneal nerve by a laboratory nerve stimulator. Another mode of stimulation included repeated single stimuli delivered at 0.1 Hz or 1 Hz. […] The agents were dissolved in physiologic saline and injected intravenously at appropriate time intervals. The intensity, onset, and duration of neuromuscular block and its type were determined with each agent. Through administering several doses, the doses corresponding to 50%, 80% and 90% neuromuscular block were determined. All agents were compared with selected standard neuromuscular blocking compounds, e.g., rocuronium.
(§1) Onset=time in minutes to 80-85% neuromuscular block.
(§2) RI=recovery index, minutes, spontaneous recovery, 25-75% neuromuscular response.
(§3) VB=vagal block, %, at 80-85% neuromuscular blocking dose.
HR=change in heart rate, %, at 80-85% neuromuscular blocking dose.
BP=change in arterial blood pressure, %, at 80-85% neuromuscular blocking dose.

The test system is the same in data set [2]. The data set can be described thus: In vivo neuromuscular block and cardiovascular side effects, anesthetized rat (Example 8, Table 3). The conditions noted are these: rat; for VB (vagal block) / ΔBP (change in arterial blood pressure) / ΔH (change in heart rate): in vivo; for ED50: intravenous dose causing 50% neuromuscular block; for RI (recovery index): spontaneous recovery, 25-75% neuromuscular response; for Onset: time to 80-85% neuromuscular block. An outline of the steps:
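Pentobarbital-anesthetized (i.p.), ventilated adult male rats given saline-dissolved agents i.v.; anterior tibial EMG responses to supramaximal single or train-of-four sciatic/peroneal stimuli, plus 0.1 or 1 Hz stimulation. Doses for 50%, 80%, 90% block derived. Onset: minutes to 80-85% block; RI: 25-75% spontaneous recovery; vagal block, heart rate and blood pressure changes (%) at 80-85% blocking dose.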

In the next data set the test system is anesthetized monkeys. The data set can be described thus: In vivo neuromuscular block and cardiovascular side effects, monkey (Example 8, Table 6). Conditions: for ED50: intravenous dose causing 50% neuromuscular block; for ΔBP (change in arterial blood pressure) / ΔH (change in heart rate): in vivo; for RI (recovery index): spontaneous recovery, 25-75% neuromuscular response; for Onset: time to 80-85% neuromuscular block. The text has this:
Both electromyographic and mechanomyographic responses can be quantified.
The techniques described under a) and b) were employed in other species as needed with the modification that juvenile pigs were initially anesthetized with inhalation of halothane (Table 5) and monkeys were initially sedated with intramuscular ketamine injections prior to inducing and maintaining general anesthesia using pentobarbital and propofol administered intravenously (Table 6).

A further data set deals with rabbits. Put plainly: In vivo neuromuscular block and cardiovascular side effects, rabbit (Example 8, Table 7). Conditions: for ED50: intravenous dose causing 50% neuromuscular block; for ΔBP (change in arterial blood pressure) / ΔH (change in heart rate): in vivo; for RI (recovery index): spontaneous recovery, 25-75% neuromuscular response; for Onset: time to 80-85% neuromuscular block.

Data set [3] concerns anesthetized cats (evoked responses of anterior tibial muscle). Put plainly: animal or person. Conditions: for ED50: intravenous dose causing 50% neuromuscular block; for RI (recovery index): spontaneous recovery, 25-75% neuromuscular response; for Onset: time to 80-85% neuromuscular block.
Source text: a) Adult, male albino rats were anesthetized with pentobarbital injected intraperitoneally. The trachea was cannulated for artificial respiration via a small animal respirator. The carotid artery was cannulated for recording blood pressure via a transducer and heart rate by a cardiotachograph on a polygraph. One external jugular vein was cannulated for i.v. drug administration. Neuromuscular function was monitored by electromyography, recording evoked responses from the anterior tibial muscle as a result of supramaximal nerve stimuli consisting of single or “train-of-four” rectangular pulses of 0.1-0.2 msec duration every 10-12 seconds, delivered to the sciatic or common peroneal nerve by a laboratory nerve stimulator. Another mode of stimulation included repeated single stimuli delivered at 0.1 Hz or 1 Hz. […] The agents were dissolved in physiologic saline and injected intravenously at appropriate time intervals. The intensity, onset, and duration of neuromuscular block and its type were determined with each agent. Through administering several doses, the doses corresponding to 50%, 80% and 90% neuromuscular block were determined. All agents were compared with selected standard neuromuscular blocking compounds, e.g. succinylcholine, pancuronium, mivacurium, or rocuronium.
as §1, §2, §3
ΔHR=change in heart rate, %, at 80-85% neuromuscular blocking dose.
ΔBP=change in arterial blood pressure, %, at 80-85% neuromuscular blocking dose.
b) Adult cats were anesthetized with a mixture of 70 mg/kg alpha chloralose and 0.5 g/kg ethylurethane intraperitoneally. One thigh was fixed in a vertical position by means of a pin at the lower end of the femur. Needle electrodes were placed on the sciatic or the common peroneal nerve. A tendon of the anterior tibial muscle was attached to a force transducer and the muscle responses evoked, as described under a), were recorded. Both electromyographic and mechanomyographic responses can be quantified. Blood pressure and heart rate changes were recorded from appropriately cannulated arteries via a blood pressure transducer and cardiotachograph.

Data set [4] relates to anesthetized juvenile pigs. The data set can be described thus: animal or person. Type of data set: in vivo. Conditions: pig; for ED50: intravenous dose causing 50% neuromuscular block; for VB (vagal block) / ΔBP (change in arterial blood pressure) / ΔH (change in heart rate): in vivo; for RI (recovery index): spontaneous recovery, 25-75% neuromuscular response; for Onset: time to 80-85% neuromuscular block. The essentials:
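Electromyographic and mechanomyographic responses quantified. Monkeys sedated with intramuscular ketamine, then general anesthesia with intravenous pentobarbital and propofol; juvenile pigs induced with inhaled halothane.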

Read-outs that look alike come from different tables or passages of the source.

On to “Bis[4-dimethylaminocyclohexyl]fumarate bis(4-acetoxy-3-methoxybenzyl bromide)”, for which, in data set [1], the ED50 is 2138 (128) μg/kg, the “RI (recovery index)” value is given as 0.65 (0.05) min and the Onset is 1.3 (0.05) min.

With `CC(=O)Oc1ccc(C[N+](C)(C)C2CCC(OC(=O)CCCC(=O)OC3CCC([N+](C)(C)Cc4ccc(OC(C)=O)c(OC(C)=O)c4)CC3)CC2)cc1OC(C)=O.[Br-].[Br-]` (stereo not shown) [Bis[4-dimethylaminocyclohexyl]glutarate bis(3,4-diacetoxybenzyl bromide)], in data set [1], the “% VB at ED80 nmb (vagal block)” value was 64 (22) %, the “BP (change in arterial blood pressure)” value is listed as −13 (6) %, the “HR (change in heart rate)” value is −5 (3) % and the ED50 is 700 (122) μg/kg. Further, in data set [1], the “RI (recovery index)” value was 0.8 (0.07) min and the Onset is listed as 0.75 (0.05) min.

`COc1cc2c(cc1OC)[C@@H](Cc1cc(OC)c(OC)c(OC)c1)[N+](C)(CCCOC(=O)CC/C=C/CCC(=O)OCCC[N+]1(C)CCc3cc(OC)c(OC)cc3[C@H]1Cc1cc(OC)c(OC)c(OC)c1)CC2` (stereo partly shown) [Mivacurium, reference compound]: the entries for the “VB (vagal block)” value in data set [2] (male) and in data set [4] were 0% and 17%, respectively. In addition, the “ΔBP (change in arterial blood pressure)” value in data set [2] (male) is 0%; with anesthetized monkeys it was 0%; with rabbits it was 0%; in data set [3] (cat, in vivo), 0%; in data set [4], 0%. In addition, the “ΔH (change in heart rate)” value came to 0% in data set [2] (male); 0% in the data set on anesthetized monkeys; 0% in the data set with rabbits; 0% in data set [3] (cat, in vivo); 0% in data set [4]. Further, the ED50 was 0.14 mg/kg in data set [2]; 0.034 mg/kg in the data set with anesthetized monkeys (Primates, read-out: ED50); 0.02 mg/kg in the data set with rabbits (Oryctolagus cuniculus, read-out: ED50); 0.025 mg/kg in data set [3] (cat); 0.135 mg/kg in data set [4] (Sus scrofa, read-out: ED50). The “RI (recovery index)” value in data set [2] is 3.9 min; in the data set on anesthetized monkeys it was 2.4 min; in the data set on rabbits it was 3.9 min; in data set [3] (cat), 5 min; in data set [4], 3.6 min. In addition, the Onset in data set [2] was determined as 1.8 min; in the data set with anesthetized monkeys, 1.9 min; with rabbits it was 2.8 min; in data set [3] (cat) it was 3.5 min; in data set [4], 1.5 min.

As to “Bis[N-(4-acetoxy-3,5-dimethoxybenzyl)-6-azabicyclo[3.2.1]octanium-3-yl]glutarate dibromide”, in data set [1], the “% VB at ED80 nmb (vagal block)” value is 75 (5) %, the “BP (change in arterial blood pressure)” value was “+21 (2) %”, the “HR (change in heart rate)” value is reported as 0% and the ED50 is reported as 3050 (193) μg/kg. For the same compound, in data set [1], the “RI (recovery index)” value is recorded as 1.4 (0.1) min and the Onset is reported as 0.75 (0.05) min.

“Bis[N-(3,4-dipropionyloxybenzyl)-6-azabicyclo[3.2.1]octanium-3-yl]glutarate dibromide”: in data set [1], the “% VB at ED80 nmb (vagal block)” value is 63 (7) %, the “BP (change in arterial blood pressure)” value is reported as “+8 (2) %”, the “HR (change in heart rate)” value came to 0% and the ED50 was 1002 (174) μg/kg. In addition, in data set [1], the “RI (recovery index)” value is given as 0.47 (0.03) min and the Onset is 0.5 (0.03) min.

Consider `CC(=O)Oc1ccc(C[N+]2(C)C3CCCC2CC(OC(=O)CCCCC(=O)OC2CC4CCCC(C2)[N+]4(C)Cc2ccc(OC(C)=O)c(OC(C)=O)c2)C3)cc1OC(C)=O.[Br-].[Br-]` (stereo not shown) [bis[N-(3,4-diacetoxybenzyl)granataninium-3-yl]adipate dibromide], for which, in data set [2], the “VB (vagal block)” value was determined as 5%, the “ΔBP (change in arterial blood pressure)” value was determined as 0%, the “ΔH (change in heart rate)” value is on record as 0% and the ED50 came out at 0.14 mg/kg. For the same compound, in data set [2], the “RI (recovery index)” value was found to be 0.4 min and the Onset was 0.5 min. Further, in the data set on anesthetized monkeys, the “ΔBP (change in arterial blood pressure)” value came to 0%, the “ΔH (change in heart rate)” value came to 0%, the ED50 was determined as 0.085 mg/kg and the “RI (recovery index)” value came to 0.4 min. In the data set on anesthetized monkeys, this compound gave an Onset of 0.8 min. In the data set on rabbits, the “ΔBP (change in arterial blood pressure)” value is 0%, the “ΔH (change in heart rate)” value is 0%, the ED50 turned out to be 0.167 mg/kg and the “RI (recovery index)” value was determined as 0.5 min. In the data set with rabbits, this compound showed an Onset of 0.68 min. For the same compound, in data set [3] (cat), the ED50 turned out to be 0.4 mg/kg, the “RI (recovery index)” value is 0.5 min and the Onset was 0.7 min. Further, in data set [3] (in vivo), the “VB (vagal block)” value worked out at 70%, the “ΔBP (change in arterial blood pressure)” value is recorded as −40% and the “ΔH (change in heart rate)” value came to 0%. Also, in data set [4], the “VB (vagal block)” value is on record as 51%, the “ΔBP (change in arterial blood pressure)” value was determined as 0%, the “ΔH (change in heart rate)” value is given as 0% and the ED50 stood at 0.14 mg/kg. Further, in data set [4], the “RI (recovery index)” value came out at 0.9 min and the Onset was found to be 0.7 min.

Turning to “Bis[N-(3,4-diacetoxybenzyl)-6-azabicyclo[3.2.1]octanium-3-yl]glutarate dibromide”, in data set [1], the “% VB at ED80 nmb (vagal block)” value was 19 (4) %, the “BP (change in arterial blood pressure)” value was found to be 0%, the “HR (change in heart rate)” value came out at 0% and the ED50 is on record as 440 (39) μg/kg. In data set [1], the “RI (recovery index)” value is 0.4 (0.05) min and the Onset is reported as 0.55 (0.05) min.

In the case of “Bis[N-(4-acetoxy-3-methoxybenzyl)-6-azabicyclo[3.2.1]octanium-3-yl]-glutarate dibromide”, in data set [1], the “% VB at ED80 nmb (vagal block)” value is 68 (96) %, the “BP (change in arterial blood pressure)” value is “+12 (5) %”, the “HR (change in heart rate)” value is listed as 0% and the ED50 was 1425 (161) μg/kg. Also, in data set [1], the “RI (recovery index)” value is listed as 0.65 (0.05) min and the Onset is on record as 0.53 (0.04) min.

Turning to `CC(=O)Oc1ccc(C[N+](C)(C)C2CCC(OC(=O)/C=C/C(=O)OC3CCC([N+](C)(C)Cc4ccc(OC(C)=O)c(OC(C)=O)c4)CC3)CC2)cc1OC(C)=O.[Br-].[Br-]` (stereo not shown) [Bis[4-dimethylaminocyclohexyl]fumarate bis(3,4-diacetoxybenzyl bromide)], in data set [1], the “% VB at ED80 nmb (vagal block)” value is on record as 65 (18) %, the “BP (change in arterial blood pressure)” value is −4 (3) %, the “HR (change in heart rate)” value is reported as “+6 (3) %” and the ED50 was 2125 (475) μg/kg. In data set [1], the “RI (recovery index)” value is 1.5 (0.1) min and the Onset was 1.3 (0.1) min.
